In brackets after ≈: the same amount, converted by molar mass. Like-named read-outs stand apart in the source and are kept apart here.
Columns and labels:
Bac.Subt.ATCC 6633 = assay: agar serial dilution test; assay type: cell-based, Bacillus subtilis; details: Bacillus subtilis, agar serial dilution, 24 hours, 37° C., read-out: minimal inhibitory concentration (MIC)
Staph.aureus A 321 = assay: agar serial dilution test; assay type: cell-based, Staphylococcus aureus; details: Staphylococcus aureus, agar serial dilution, 24 hours, 37° C., read-out: minimal inhibitory concentration (MIC)
Staph.aureus A 2000 = assay: agar serial dilution test; assay type: cell-based, Staphylococcus aureus; details: Staphylococcus aureus, agar serial dilution, 24 hours, 37° C., read-out: minimal inhibitory concentration (MIC)
Strep.haem. A 266 = assay: agar serial dilution test; assay type: cell-based, Streptococcus haemolyticus; details: Streptococcus; agar serial dilution, 24 hours, 37° C.; read-out: minimal inhibitory concentration (MIC)
Strep. faec. L 80 = assay: agar serial dilution test; assay type: cell-based, Streptococcus faecalis; details: Enterococcus faecalis; agar serial dilution, 24 hours, 37° C.; read-out: minimal inhibitory concentration (MIC)
Dipl.pneum. L 54 = assay: agar serial dilution test; assay type: cell-based, Diplococcus pneumoniae; details: Streptococcus pneumoniae; agar serial dilution, 24 hours, 37° C.; read-out: minimal inhibitory concentration (MIC)
Bruc.melit. A 488 = assay: microbe, parasite or virus in culture; assay type: cell-based; details: Brucella melitensis, 24 h, read-out: minimal inhibitory concentration (MIC)
Past.multo. A 723 = assay: agar serial dilution test; assay type: cell-based, Pasteurella multocida; details: Pasteurella multocida; agar serial dilution, 24 hours, 37° C.; read-out: minimal inhibitory concentration (MIC)
Kleb.pneum. A 809 = assay: agar serial dilution test; assay type: cell-based, Klebsiella pneumoniae; details: Klebsiella pneumoniae; agar serial dilution, 24 hours, 37° C.; read-out: minimal inhibitory concentration (MIC)
Salm.dubl. P 43 = assay: agar serial dilution test; assay type: cell-based, Salmonella dublin; details: Salmonella enterica; agar serial dilution, 24 hours, 37° C.; read-out: minimal inhibitory concentration (MIC)
Esch.coli U 20 = assay: agar serial dilution test; assay type: cell-based, Escherichia coli; details: Escherichia coli, agar serial dilution, 24 hours, 37° C., read-out: minimal inhibitory concentration (MIC)
Shig.equir. T 3 = assay: agar serial dilution test; assay type: cell-based; details: 24 h, 37° C., read-out: minimal inhibitory concentration (MIC)
Pseud.aerug. H 10 = assay: agar serial dilution test; assay type: cell-based; details: agar serial dilution, 24 hours, 37° C.; read-out: minimal inhibitory concentration (MIC)
Pseud.aerug. 2396 = assay: agar serial dilution test; assay type: cell-based; details: agar serial dilution, 24 hours, 37° C.; read-out: minimal inhibitory concentration (MIC)
[1] = test system: Pseud.aerug. Wyeth A 1058; assay: agar serial dilution test; assay type: cell-based; details: agar serial dilution, 24 hours, 37° C.; read-out: minimal inhibitory concentration (MIC)
Prot.rettg. A 821 = assay: agar serial dilution test; assay type: cell-based, Proteus rettgeri; details: Providencia rettgeri, agar serial dilution, 24 hours, 37° C., read-out: minimal inhibitory concentration (MIC)
Prot.mirab. H 3 = assay: agar serial dilution test; assay type: cell-based, Proteus mirabilis; details: Proteus mirabilis, agar serial dilution, 24 hours, 37° C., read-out: minimal inhibitory concentration (MIC)
Prot.mirab. L 93 = assay: agar serial dilution test; assay type: cell-based, Proteus mirabilis; details: Proteus mirabilis, agar serial dilution, 24 hours, 37° C., read-out: minimal inhibitory concentration (MIC)
Prot.mirab. A 1200 = assay: agar serial dilution test; assay type: cell-based, Proteus mirabilis; details: Proteus mirabilis, 24 h, agar serial dilution, 24 hours, 37° C.; read-out: minimal inhibitory concentration (MIC)
Prot.morg. 2241 = assay: agar serial dilution test; assay type: cell-based; details: agar serial dilution, 24 hours, 37° C., read-out: minimal inhibitory concentration (MIC)
Staph.aureus A 355 [2] = assay: micro serial dilution test; assay type: cell-based, Staphylococcus aureus; details: Staphylococcus aureus, A355; micro serial dilution (in brackets), about 18 hours, 30° C. or 37° C.; penicillinase-producing strain; read-out: minimal inhibitory concentration (MIC)
From the text: Two drops of a stock solution of the test compound (antibiotic) in a known concentration were brought into the first hole of a test plate with 9 numbered holes with a sterile Pasteur pipette. After rinsing this pipette three times with a physiological NaCl-solution, two drops of a stock solution of the test organism in a culture medium were brought in all the holes except for hole 8. In the first hole, the solution of the tested compound had been half diluted, then by stirring the liquid in the first hole and adding two drops of this mixture to the second hole and so on until hole 8, dilutions of the test compound solution were obtained in geometrical progression. The hole 9 contained no antibiotic and served for checking the growth of the testogranism in a blank medium. The test plate was incubated at 30° C. or 37° C. for about 18 hours.
^1 Penicillinase-producing strain

Staph.aureus A 2001 = assay: micro serial dilution test; assay type: cell-based, Staphylococcus aureus; details: Staphylococcus aureus, micro serial dilution (in brackets), about 18 hours, 30° C. or 37° C., read-out: minimal inhibitory concentration (MIC)
Haem.infl. A 1030 = assay: micro serial dilution test; assay type: cell-based; details: micro serial dilution (in brackets), about 18 hours, 30° C. or 37° C., read-out: minimal inhibitory concentration (MIC)
Staph.aureus A 355 [3] = assay: agar serial dilution test; details: Staphylococcus aureus, A355, 24 h

Compound	MIC (Strep.haem. A 266)	MIC (Strep. faec. L 80)	MIC (Dipl.pneum. L 54)	MIC (Bruc.melit. A 488)	MIC (Past.multo. A 723)	MIC (Kleb.pneum. A 809)	MIC (Salm.dubl. P 43)	MIC (Shig.equir. T 3)	MIC (Pseud.aerug. H 10)	MIC (Pseud.aerug. 2396)	MIC [1]	MIC (Staph.aureus A 355 [2])	also measured
CC(=O)OCC1=C(C(=O)O)N2C(=O)[C@@H](NC(=O)Cc3nc(-c4c(C)cc(C)cc4C)no3)[C@H]2SC1 [Example 9, 7-{[3-(2,4,6-trimethylphenyl)-1,2,4-oxadiazol-5-yl]-acetamido}-cephalosporanic acid]	0.03 µg/mL (≈ 0.0599 µM)	6 µg/mL (≈ 12 µM)	0.25 µg/mL (≈ 0.499 µM)	100 µg/mL (≈ 200 µM)	50 µg/mL (≈ 99.9 µM)	50 µg/mL (≈ 99.9 µM)	> 100 µg/mL	> 100 µg/mL	> 100 µg/mL	> 100 µg/mL	> 100 µg/mL	0.15 µg/mL (≈ 0.3 µM)	MIC (Bac.Subt.ATCC 6633; ATCC6633, 24 h): 0.06 µg/mL (≈ 0.12 µM); MIC (Staph.aureus A 321; A321, 24 h): 0.12 µg/mL (≈ 0.24 µM); MIC (Staph.aureus A 2000; A2000, 24 h): 1 µg/mL (≈ 2 µM); MIC (Esch.coli U 20; U20): > 100 µg/mL; MIC (Prot.rettg. A 821; 24 h): > 100 µg/mL; MIC (Prot.mirab. H 3): > 100 µg/mL; MIC (Prot.mirab. L 93): > 100 µg/mL; MIC (Prot.mirab. A 1200): > 100 µg/mL; MIC (Prot.morg. 2241; 24 h): > 100 µg/mL; MIC (Staph.aureus A 2001; A2001, 18 h): 0.11 µg/mL (≈ 0.22 µM); MIC (Haem.infl. A 1030; 18 h): 125 µg/mL (≈ 250 µM); MIC (Staph.aureus A 355 [3]; read-out: minimal inhibitory concentration (MIC), agar serial dilution, 24 hours, 37° C., penicillinase-producing strain): 1 µg/mL (≈ 2 µM)
CC(=O)OCC1=C(C(=O)O)N2C(=O)[C@@H](NC(=O)Cc3ccccc3)[C@H]2SC1 [Cephalosporin G, reference compound]	0.03 µg/mL (≈ 0.0768 µM)	25 µg/mL (≈ 64 µM)	0.06 µg/mL (≈ 0.154 µM)	2 µg/mL (≈ 5.12 µM)	1 µg/mL (≈ 2.56 µM)	1 µg/mL (≈ 2.56 µM)	6 µg/mL (≈ 15.4 µM)	25 µg/mL (≈ 64 µM)	> 100 µg/mL	> 100 µg/mL	> 100 µg/mL	1.8 µg/mL (≈ 4.61 µM)	MIC (Bac.Subt.ATCC 6633; ATCC6633): 0.09 µg/mL (≈ 0.231 µM); MIC (Staph.aureus A 321; A321): 1.5 µg/mL (≈ 3.84 µM); MIC (Staph.aureus A 2000; A2000): 1.5 µg/mL (≈ 3.84 µM); MIC (Esch.coli U 20; U20, 24 h): 50 µg/mL (≈ 128 µM); MIC (Prot.rettg. A 821): 25 µg/mL (≈ 64 µM); MIC (Prot.mirab. H 3; 24 h): 25 µg/mL (≈ 64 µM); MIC (Prot.mirab. L 93; 24 h): 2 µg/mL (≈ 5.12 µM); MIC (Prot.morg. 2241): > 100 µg/mL; MIC (Staph.aureus A 2001; A2001): 0.9 µg/mL (≈ 2.31 µM); MIC (Haem.infl. A 1030): 125 µg/mL (≈ 320 µM); MIC (Staph.aureus A 355 [3]; read-out: minimal inhibitory concentration (MIC)): 1.5 µg/mL (≈ 3.84 µM)

— patent US4160829A, “Antibacterial 1,2,4-oxadiazolylacetamido cephalosporins” (Gist-Brocades N.V., priority 1972, dated 1979)
